From paper PMC5591945, “Novel Protein-Protein Inhibitor Based Approach to Control Plant Ethylene Responses: Synthetic Peptides for Ripening Control” (Frontiers in Plant Science, 2017)

Legend:
tomato fruits = conditions: 2007, cited from earlier work; for ripening, lycopene synthesis and chlorophyll breakdown: AVG inhibits ethylene biosynthesis, 1-MCP inhibits ethylene response, ref Saltveit, 2005, Passam et al.; for drawbacks on fruit quality and maturation: in some cases, ref Passam et al.
Description: Improving shelf life and nutritional quality of tomato fruits is difficult to achieve with the methods currently in use. Maintaining adequate storage conditions is expensive and might cause chilling injury if used improperly ([[…] et al., 2007]). Even though genetic modifications reducing gene expression of proteins involved in ethylene synthesis are possible in principle ([Abano and Buah, 2015]) these procedures are banned by law throughout Europe and have low acceptance among European consumers. Chemical methods such as application of AVG to inhibit ethylene biosynthesis or treatment with ...

[1] = system: Tomato fruits (Solanum lycopersicum L.) of the cultivar ‘Lyterno’; conditions: in vivo
Description: Tomato fruits (Solanum lycopersicum L.) of the cultivar ‘Lyterno’ (Rijk Zwaan, De Lier, Netherlands) were harvested at the maturity stage “green” (USDA; 2005) from tomato plants which where cultivated in a commercial-like greenhouse at the research station Campus Klein-Altendorf (University of Bonn, Germany). At the early development stages, the trusses were manually thinned to six fruits per truss, according to the common practice aiming standardized fruit size and quality. For the experiment, the last two fruits of the fourth truss, counted from the bottom, were chosen for evaluations. At the beginning of the experiment, […] showing similar color and size were divided into four treatments (n = 25 fruits per treatment). On each fruit, a transparent polyethylene film was placed at the equatorial zone to demark the four evaluation points of 2.8 cm diameter each.
The four treatments were as follows: (1) control; (2) NOP-1, 400 μM; (3) NOP-1, 1000 μM; (4) NOP-1, 2000 μM. The NOP-1 peptide (GenScript, Piscataway, NJ, United States) was dissolved in 5 ml deionized water. On each fruit, a total of 200 microdroplets (0.5 μL each) of the peptide solution were gently deposited (50 micro droplets on each marked area of the tomato fruit) with a Hamilton microdispenser (Hamilton Bonaduz AG, Bonaduz, Switzerland). […]

[2] = biological target: tomato ethylene receptor LeETR4 (tomato (Solanum lycopersicum)) (UniProt Q9XET8); test: MST; 100 nM receptor labeled with Alexa Fluor 488-Maleimide titrated with unlabeled NOP-1 (500 μM to 61.04 nM) in 50 mM Tris-HCl pH 8.0, 300 mM NaCl; Monolith NT.115, 20% MST power (LeETR4) or 60% (NR); triplicate; apparent Kd
[3] = biological target: T1, tomato ethylene receptor NR (NeverRipe) (tomato (Solanum lycopersicum), UniProt Q41341 1-635, labeled with Alexa Fluor 488-Maleimide); test: as above; conditions: both partners purified
T1 construct: Tomato ethylene receptor NR (NeverRipe), full-length codon optimized cDNA in pET16b; pET16b normally adds the deca-histidine tag and a factor Xa site at the N-terminus (surmised); Kept in 0.015% FosCholine-16; source: E. coli BL21 (DE3), solubilized with FosCholine-16, purified (HisTrap FF / Ni-NTA)
T1 sequence (looked up): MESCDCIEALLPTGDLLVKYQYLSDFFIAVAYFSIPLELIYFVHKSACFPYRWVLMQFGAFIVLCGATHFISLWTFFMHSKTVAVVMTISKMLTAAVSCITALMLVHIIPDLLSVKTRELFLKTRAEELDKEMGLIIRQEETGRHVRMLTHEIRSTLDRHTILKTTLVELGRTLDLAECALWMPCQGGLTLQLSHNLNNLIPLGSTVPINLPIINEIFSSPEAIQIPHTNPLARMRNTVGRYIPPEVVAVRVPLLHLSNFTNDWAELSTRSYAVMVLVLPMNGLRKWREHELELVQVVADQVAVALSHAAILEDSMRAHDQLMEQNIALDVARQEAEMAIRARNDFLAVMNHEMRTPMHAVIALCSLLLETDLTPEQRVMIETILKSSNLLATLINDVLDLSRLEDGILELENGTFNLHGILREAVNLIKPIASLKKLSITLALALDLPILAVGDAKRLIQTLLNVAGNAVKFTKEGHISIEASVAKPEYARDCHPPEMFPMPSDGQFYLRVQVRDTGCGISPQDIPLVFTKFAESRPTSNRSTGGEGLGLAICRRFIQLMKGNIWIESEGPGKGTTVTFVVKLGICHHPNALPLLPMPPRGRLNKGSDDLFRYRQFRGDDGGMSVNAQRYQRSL

Molecule	ripening, lycopene synthesis and chlorophyll breakdown (tomato fruits)	drawbacks on fruit quality and maturation (tomato fruits)	effect on fruit quality [1]	Kd [2] [µM]	Kd [3] [µM]
NCCO/C=C/[C@H](N)C(=O)O [AVG, aminoethoxyvinylglycine]	significantly delay ripening and slow down lycopene synthesis and chlorophyll breakdown	quality losses in taste development or to complete arrest in maturation	–	–	–
CC(C)C[C@H](NC(=O)[C@H](CCCNC(=N)N)NC(=O)[C@H](CCCNC(=N)N)NC(=O)[C@H](CCCCN)NC(=O)[C@H](Cc1ccc(O)cc1)NC(=O)[C@H](CCCNC(=N)N)NC(=O)[C@H](CCCCN)NC(=O)[C@@H](N)CC(C)C)C(=O)O [NOP-1]	–	–	no negative effects on fruit quality	–	–
CC1=CC1 [1-MCP, 1-methylcyclopropene]	significantly delay ripening and slow down lycopene synthesis and chlorophyll breakdown	quality losses in taste development or to complete arrest in maturation	–	–	–
LKRYKRRL (Used unlabeled in MST; also called NLS-derived peptide; source: synthetic peptide (GenScript)) [NOP-1 octapeptide]	–	–	–	4.15	23.5
